The text below walks through data of patent US4044043A, “Derivatives of 9-oxo-13-trans-prostenoic acid esters” (American Cyanamid Company, priority 1975, dated 1977).

In brackets after ≈: the same amount, converted by molar mass.

The subject of the first assay is gastric acid secretion. The assay is described as follows: Inhibition of Gastric Acid Secretion (Pylorous-Ligated Rat), Shay rat procedure. Type of assay: in vivo, rats (male, CFE strain). Conditions: 100 mg./kg. intraduodenal, read-out: % Inhibition of Control Gastric Acid Secretion. The text has this:
The novel compounds of the present invention are also effective inhibitors of gastric acid secretion and of ulcer development in experimental animals, and thus are potentially valuable as agents for the control of gastric acid secretion and of gastric erosion and as anti-ulcer agents. Gastric acid secretion inhibitory action is usually measured by the Shay rat procedure ^(1,2) with some modifications as follows. 6 1. Shay et al., Gastroenterology, 5, 43 (1945). 6 2. Shay et al., Gastroenterology, 26, 906 (1954).
The rats (male, CFE strain) were starved for 48 hours (water was given ad libitum) to permit evacuation of stomach contents. On the morning of the experiment, under ether anesthesia, the abdominal region was shaved and a midline incision (1-1 1/2 inch) was made with a scalpel. With the help of a closed curved hemostat the duodenum was picked up. Upon getting the duodenum into view fingers were used to pull the stomach through the opening, the stomach was then gently manipulated with fingers to rid stomach of air and residual matter which were pushed through the pylorus. Two 5-inch sutures were drawn under the pyloric-duodenal puncture. A ligature, at the juncture, was formed with one of the threads. The second ligature was also formed but not tightened.
The test compound or the vehicle, usually 1 ml./100 g. body weight, were injected into the duodenum as close as possible to the first ligature. After injection the second ligature was tightened below the injection site to minimize leakage. The stomach was placed back through the opening into the abdominal cavity, the area of incision was washed with saline and the incision was closed with autoclips. (Ocasionally instead of an intraduodenal injection, animals were dosed by the oral or subcutaneous route. In the latter case, dosing was done thirty to sixty minutes before the operation).
The abdominal cavity was exposed by cutting with scissors and the esophagus close to the stomach was clamped off with a hemostat, the stomach was removed by cutting above the hemostat (the esophagus was cut) and between the two sutures. Extraneous tissue was removed, the stomach washed with saline and blotted on gauze. A slit was carefully made in the stomach which was held over a funnel and the contents were collected in a centrifuge tube. The stomach was further cut along the outside edge and turned inside out. Two ml. of water were used to wash the stomach contents into the respective centrifuge tube. The combined stomach contents and wash were then centrifuged out for 10 minutes in the International Size 2 Centrifuge (setting at 30). The supernatant was collected, volume measured and recorded, 2 drops of phenolphthalein indicator (1% in 95% ethanol) were added and the solution was titrated with 0.02N NaOH (or with 0.04N NaOH when large volumes of stomach contents were encountered) to pH 8.4 (because of usual coloring of the stomach contents, phenolphthalein was only used to permit visual indication that the end point was near) and the amount of acid present was calculated.
Compounds inducing inhibition of gastric acid secretion of 20% or more were considered active. In a representative operation, and merely by way of illustration, the results obtained with this assay with typical compounds of the present invention are given in Table IIIA.
With `CCOC(=O)CCCCCC[C@H]1C(=O)CC[C@@H]1/C=C/CCCS(=O)(=O)CC` (relative stereo) [ethyl 9-oxo-18-dioxythia-13-trans-prostenoate], the inhibition in vivo at 100 mg/kg was 34%.

For the compound `CCCCCC/C=C/[C@@H]1CCC(=NNc2cc(Cl)ccc2Cl)[C@H]1CCCCCCC(=O)O` (relative stereo) [9-Oxo-13-trans-prostenoic acid 2,5-dichlorophenylhydrazone], the inhibition in vivo at 100 mg/kg worked out at 30%.

Take `CCCCCC/C=C/[C@H]1CCCC(=O)[C@@H]1CCCCCCC(=O)OCC` (relative stereo) [ethyl 9-oxo-10a-homo-13-trans-prostenoate]: the inhibition in vivo at 100 mg/kg stood at 46%.

For the compound `CCCCCCC=CC1CC(SC)C(=O)C1CCCCCCC(=O)OCC` (stereo not drawn) [Ethyl 10-methylthio-9-oxo-13-trans-prostenoate], the inhibition in vivo at 100 mg/kg came to 35%.

As for `CCC/C=C/[C@@H]1CCCC(=O)[C@H]1CCCCCCC(=O)O` (relative stereo) [9-oxo-18,19,20-trinor-10a-homo-13-trans-prostenoic acid], the inhibition in vivo at 100 mg/kg was 39%.

Take `CCC/C=C/[C@@H]1CCC(=O)[C@H]1CCCCOCC(=O)OCC` (relative stereo) [ethyl 9-oxo-3-oxa-18,19,20-trinor-13-trans-prostenoate]: the inhibition in vivo at 100 mg/kg is 65%.

As to `CCCCCCC=CC1CC(F)C(=O)C1CCCCCCC(=O)OCC` (stereo not drawn) [Ethyl 10-fluoro-9-oxo-13-trans-prostenoate], the inhibition in vivo at 100 mg/kg came to 25%.

Take `CCCC=CC1CCC(=O)C1CCCCCC(F)C(=O)OCC` (stereo not drawn) [ethyl 9-oxo-2-fluoro-18,19,20-trinor-13-trans-prostenoate]: the inhibition in vivo at 100 mg/kg is 84%.

On to `CCCCCCC/C=C/[C@H]1CCC(=O)[C@@H]1CCCCCCC(=O)OCC` (relative stereo) [ethyl 20-methyl-9-oxo-13-trans-prostenoate], for which the inhibition in vivo at 100 mg/kg amounted to 36%.

Regarding `CCCCCC/C=C/[C@@H]1CCC(=O)[C@H]1CCCCCCC(=O)OCCCC` (relative stereo) [butyl 9-oxo-13-trans-prostenoic acid], the inhibition in vivo at 100 mg/kg stood at 46%.

For the compound `CCC/C=C/[C@H]1CCCC(=O)[C@@H]1CCCCCCC(=O)OCC` (relative stereo) [ethyl 9-oxo-18,19,20-trinor-10a-homo-13-transprostenoate], the inhibition in vivo at 100 mg/kg was determined as 37%.

For `CCCCCC/C=C/[C@@H]1CCC(=O)[C@H]1CCCCSCC(=O)OCC` (relative stereo) [ethyl 9-oxo-3-thia-13-trans-prostenoate], the inhibition in vivo at 100 mg/kg was 39%.

Turning to `CCCCCC/C=C/[C@H]1CCC(=O)[C@@H]1CCCCCCC(=O)OCC` (relative stereo) [ethyl 9-oxo-13-trans-prostenoate], the inhibition in vivo at 100 mg/kg came out at 28%.

In the case of `CCCCCCC=CC1CC(c2ccccc2)C(=O)C1CCCCCCC(=O)OCC` (stereo not drawn) [Ethyl 9-oxo-10-phenyl-13-trans-prostenoate], the inhibition in vivo at 100 mg/kg amounted to 24%.

A further assay deals with dl-PGE1-induced contraction of gerbil colon. The assay is described as follows: Inhibition of dl-PGE1-Induced Contraction of Gerbil Colon (prostaglandin antagonist action). Type of assay: cell-based, gerbils (Meriones unguiculatus). Conditions: Meriones unguiculatus, 1 min; sub-maximal challenge, 20 ng./ml. dl-PGE1; 50% inhibition of maximum response; read-out: ID50 vs. 20 ng. of PGE1/ml. Here is the method:
The compounds of this invention are also useful as antagonists of prostaglandin action and accordingly they are potentially useful as anti-inflammatory agents, and as agents for the treatment of periodontal diseases and diarrhea. Testing for prostaglandin antagonist action is carried out in the following manner. Sections of ascending colon, approximately 20 mm. long, from mature male gerbils (Meriones unguiculatus) weighing 70-80 g. were mounted in De Jalon's solution (154 mM NaCl; 5.95 mM NAHCO3; […], 5.64 mM KC and .27 mM CaCl2 in 20 ml. tissue baths) (L and K Glass Co., Lynnhurst, N.J.). The medium was continually gassed with a mixture of 95% 02 -5% CO2 and maintained at 37° C. The tissues were suspended via silk suture threads between a glass hook at the base and a model FT .03C force displacement transducer (Grass Instruments, Quincy, Massachusetts). Contractions were recorded on a Poly-Viso ® polygraph (Sanborn Co., Cambridge, Massachusetts). After mounting, tissues were allowed to stabilize 15-20 minutes during which time adjustments were made to establish and maintain a 0.5 g. resting tension on the muscle. Thereafter, test cycles of 3-5 minutes were begun and consisted of a 1 minute exposure to the potential antagonist, if called for, followed by a 1 minute exposure to the prostaglandin agonist, a 15-30 sec. washout and a recovery period of 2-2.5 minutes. […] During the washout period, the tissue was rinsed with a measured amount equalling 8 volumes of medium. Muscle relaxation was virtually complete by the end of the washout period. During preliminary tests it was noted that a final concentration of 200 ng./ml. of a racemic mixture of synthetic prostaglandin-E1 (dl-PGE1) produced maximal muscle contraction. Following stabilization, muscles were exposed 2 to 3 times to this concentration of dl-PGE1 until a consistent response was recorded. Once maximal responses were established, test cycles with potential antagonists were commenced and were followed alternately with prostaglandin-only test cycle. […] The contraction of the muscle induced by 200 ng./ml. dl-PGE1 following exposure to a given concentration of the potential antagonist was always compared to the response of the tissue to that level of dl PGE1 in the immediately preceding cycle. Using a series of potential antagonist concentrations, an approximate ID50 (concentration at which 50% inhibition was observed) was established. The compounds were also tested against a sub-maximal prostaglandin challenge (20 ng./ml. dl-PGE1) in which case activity is reported in terms of a 50% inhibition of maximum response.
With `CCCCCCC=CC1CC(C#N)C(=O)C1CCCCCCC(=O)OCC` (stereo not drawn) [Ethyl 10-cyano-9-oxo-13-trans-prostenoate], the IC50 is 10 to 25 µg/mL (≈ 26.6 to 66.6 µM).

For the compound `CCC/C=C/[C@@H]1CCCC(=O)[C@H]1CCCCCCC(=O)O` (relative stereo) [9-oxo-18,19,20-trinor-10a-homo-13-trans-prostenoic acid], the IC50 is 1 µg/mL (≈ 3.4 µM).

For `CC(C)/C=C/[C@H]1CCC(=O)[C@@H]1CCCCCCC(=O)O` (relative stereo) [15-methyl-9-oxo-17,18,19,20-tetranor-13-trans-prostenoic acid], the IC50 is 25 to 30 µg/mL (≈ 89.2 to 107 µM).

Still in this assay, the particulars now being: agonist alone, preliminary tests.
Consider `CCCCC[C@H](O)/C=C/[C@H]1[C@H](O)CC(=O)[C@@H]1CCCCCCC(=O)O` (relative stereo) [dl-PGE1, prostaglandin-E1, reference compound], for which the “final concentration that produced maximal muscle contraction” value was found to be 200 ng/mL.

A further assay deals with Mycobacterium smegmatis ATCC 606. Put plainly: agar-dilution streak-plate antimicrobial assay. Conditions: Mycolicibacterium smegmatis, ATCC606, read-out: Minimal inhibitory conc. (6). Type of assay: cell-based. The protocol: The novel compounds of the present invention are also useful as antimicrobial agents. […] In this assay, the compounds to be tested are made up to contain 2.5 mg. of test compound per milliliter of solution. Observing sterile techniques, two-fold serial dilution are made of each test solution. One milliliter of each of the original solutions and of each of the serial dilutions is then added to 9 ml. of warm sterile nutrient agar capable of supporting growth of the bacterial test cultures. A second set of agar dilutions is prepared identical to the first except that the nutrient agar is designed to support the growth of the fungal test cultures. […] The test bacteria and yeast-like fungi are prepared for use by growing in broth overnight. The spores of the filamentous fungi are harvested from mature agar slant cultures and are suspended in sterile physiological saline solution. A loopful of each of the resulting live suspensions is then, still employing sterile techniques, streaked upon the surfaces of each of the agar plates and the resulting streaked plates are then incubated. After an appropriate period of time, each of the streaks on each of the plates is inspected visually and the extent, if any, of bacterial or fungal growth is noted. The minimal inhibitory concentration (expressed in micrograms per milliliter) is defined as the concentration of test compound causing complete inhibition of growth of any particular organism. In a representative operation, and merely by way of illustration, the minimal inhibitory concentration of typical compounds of the present invention against a variety of test organisms as determined in the above-described assay are set forth in Tables II and III below: […]
For the compound `CCCCCC/C=C/[C@H]1CCC(O)[C@@H]1CCCCCCC(=O)OCC` (stereo partly drawn) [ethyl 9-hydroxy-13-trans-prostenoate, ethyl 9α- and 9β-hydroxy-13-trans-prostenoate], the MIC is 25 µg/mL (≈ 70.9 µM).

`CCCCCC/C=C/[C@H]1CCC(=O)[C@@H]1CCCCC(=O)OCC` (relative stereo) [ethyl 9-oxo-6,7-dinor-13-trans-prostenoate]: the MIC is 250 µg/mL (≈ 775 µM).

For the next assay, the system named is diastolic blood pressure. Put plainly: Prostaglandin-like hypotensive activity in anesthetized rats (minimal dose for about 10 mm. decrease in diastolic blood pressure). Type of assay: in vivo, Male Wistar strain rats. Conditions: Rattus norvegicus; intravenous; decrease of about 10 mm. in diastolic blood pressure. Here is the method:
This procedure is a modification of the technique described by Pike et al., Prostaglandins, Nobel Symposium 2, Stockholm, June, 1966; p, 165.
Male Wistar strain rats (Royal Hart Farms) averaging approximately 250 grams in weight were fastened to rat boards in a supine position by means of canvas vests and limb ties. The femoral area was infiltrated subcutaneously with lidocaine and the iliac artery and vein exposed and cannulated. Arterial blood pressure (systolic/diastolic) was recorded using a Statham P23 Db pressure transducer-Offner dynograph system. To obtain a stable blood pressure, the animals were anesthetized before use with pentobarbital, 30 mg./kg. of body weight intravenously, and also were given hexamethonium bitartrate, 2 mg./kg. of body weight intravenously. The test compounds were prepared by ultrasonic dispersion in a saline-Tween 80 ® vehicle. A constant intravenous dose volume of 0.5 ml. was administered and test doses ranged from 0.1 to 10.0 mg./kg. of body weight. Increasing or decreasing doses were selected depending on the dose response obtained. In Table I below are set forth the minimal doses required to produce a decrease of about 10 mm. in diastolic blood pressure for typical compounds of the present invention.
For the compound `CC/C=C\CC/C=C/[C@H]1CCC(=O)[C@@H]1CCCCCCC(=O)OCC` (relative stereo) [ethyl 9-oxo-13-trans-17-cis-prostadienoate], the minimal effective dose (commonly the lowest level tested that produced the effect sought) fell in the range of 0.2 to 2 mg/kg.

Compound `CCCCCC/C=C/[C@H]1CCCC(=O)[C@@H]1CCCCCCC(=O)OCC` (relative stereo) [ethyl 9-oxo-10a-homo-13-trans-prostenoate] displayed a minimal effective dose of 2 mg/kg.

As to `CC[S+]([O-])CCC/C=C/[C@@H]1CCC(=O)[C@H]1CCCCCCC(=O)O` (relative stereo) [9-oxo-18-oxythia-13-trans-prostenoic acid], the minimal effective dose was 2 to 8 mg/kg.

As for `CCCCCCC/C=C/[C@H]1CCC(=O)[C@@H]1CCCCCCC(=O)OCC` (relative stereo) [ethyl 20-methyl-9-oxo-13-trans-prostenoate], the minimal effective dose is 0.5 mg/kg.

Take `CCCCCC/C=C/[C@H]1CCC(=O)[C@@H]1CCCCCCC(=O)OCC` (relative stereo) [ethyl 9-oxo-13-trans-prostenoate]: the minimal effective dose is 0.5 mg/kg.
